The values below come from US9820983B2, “Immediate release pharmaceutical compositions comprising oxycodone and naloxone” (Purdue Pharma L.P., priority 2009, dated 2017).

The nature of series [1]: Single dose bioavailability study of IR OXN 20/10 vs oxycodone IR capsule 20 mg and OXN PR 20/10 (Targin) in healthy subjects (Example 3). The class given is in vivo, human. The settings on record: oral, from the study treatments.
Experimental: The study was an open-label, single-dose, 3-treatment, 3-period, randomised crossover. Each subject received single oral doses of IR OXN tablet 20/10 mg, oxycodone IR capsule 20 mg and OXN PR tablet 20/10 mg (Targin®). Subjects received each of the three treatments according to a random allocation schedule (RAS), with at least a 7-day washout period between each dosing.
Subjects attended a screening visit within 21 days of the first dosing day of Study Period 1. Eligible subjects then checked into the study unit on the day before dosing in each study period. Subjects were administered the appropriate study drug in a fasted state the following morning.
Pharmacokinetic blood samples were taken for 36 hours after administration of study drug in each study period, and subjects were discharged after the 36-hour blood sample.
IR OXN tablet 20/10 mg. The treatment was administered orally, in a fasted state, as follows: […]
Log-transformed data for the analytes oxycodone, noroxycodone, oxymorphone, noroxymorphone, naloxone, 6β-naloxol, naloxone-3-glucuronide and 6β-naloxol-3-glucuronide and the pharmacokinetic parameters AUCt, AUCINF and Cmax were analysed using a mixed effect linear model 18, with fixed terms for treatment and period and a random effect for subject.
Treatment ratios/differences and their associated 90% confidence intervals were calculated from the least square means.
Series [2] in a line: Single dose study of dose proportionality of IR OXN tablets in healthy subjects (Example 2). The class given is in vivo, human. To be noted: after IR OXN tablets, particularly with the lower doses.
Text: The study was an open-label, single-dose, 4-treatment, 4-period, randomised crossover study in healthy male and female subjects conducted at a single study centre. […] Subjects received each of the four treatments according to a random allocation schedule (RAS), with at least a 7-day washout period between each dosing.
Subjects attended a screening visit within 21 days of the first dosing day of Study Period 1. Eligible subjects then checked into the study unit on the day before dosing in each study period. Subjects were administered the appropriate study drug in a fasted state the following morning. […]
The following pharmacokinetic parameters were calculated from the plasma concentrations of oxycodone, noroxycodone, oxymorphone, noroxymorphone, naloxone, 6β-naloxol, naloxone-3-glucuronide and 6β-naloxol-3-glucuronide: • Area under the plasma concentration-time curve measured from the time of dosing to the last measurable concentration (AUCt) • Area under the plasma concentration-time curve measured from the time of dosing and extrapolated to infinity (AUCinf) • Maximum observed plasma concentration (Cmax) • Time of maximum observed plasma concentration (tmax) • Terminal phase rate constant (LambdaZ) • Terminal phase half-life (t1/2Z) […]
AUCt values were calculated using the linear trapezoidal method. […]

Consider `C=CCN1CC[C@]23c4c5ccc(O)c4O[C@H]2C(=O)CC[C@@]3(O)[C@H]1C5` [Naloxone, naloxone], for which the bioavailability of naloxone result in series [1] was “very low”. For the same molecule, the “plasma concentrations of naloxone” value in series [2] is “extremely low”.
